The source of these data is patent US20230241046A1, “SOLID DISPERSION OF OPICAPONE” (BIAL - PORTELA & CA, S.A., priority 2020, published 2023).

In general, AUC refers to the area under the concentration-time curve, a measure of exposure. What is called Cmax is the maximum level reached in the sampled fluid or tissue. The AUC(0-t) is exposure summed from dosing to a finite time, without extrapolation to infinity. High values mean high exposure, low ones low exposure.

Data set [1] in a line: Fasted state simulated gastric fluid (FaSSGF) kinetic solubility assay. The data set is classed as physicochemical. The following applies: kinetic solubility in FaSSGF, 0-24 h. How it is done: (§1) The content of opicapone in kinetic solubility studies was analysed by HPLC coupled to a UV/Vis detector (Waters series, USA). A C18 column was used. The mobile phase consisted of 0.1% o-phophoric acid and acetonitrile (68:32 v/v).
Kinetic solubility studies on the opicapone solid dispersion were performed at room temperature at a loading equivalent to˜10 mg of opicapone per mL of FaSSGF, in a total of 5 mL of medium. Samples were tested at 0, 0.5, 1, 2, 4 and 24 hours (Klein, AAPS J., 2010, 12, 397-406).
(§2) Area under the Concentration Curve (AUC), Cmax and other pharmacokinetic parameters were calculated using GraphPad Prism 7 for Windows (GraphPad Software, USA).

Data set [2] can be described thus: Fasted state simulated intestinal fluid (FaSSIF) kinetic solubility assay. The data set is classed as physicochemical. The following applies: kinetic solubility in FaSSIF, 0-24 h. How it is done: as §1
Kinetic solubility studies on the opicapone solid dispersion were performed at room temperature at a loading equivalent to˜75 mg of opicapone per mL of FaSSIF, in a total of 5 mL of medium. Samples were tested at 0, 0.5, 1, 2, 4 and 24 hours (Klein, AAPS J., 2010, 12, 397-406).
as §2

A short description of data set [3]: In vivo pharmacokinetics after oral administration. The following applies: male Wistar rats, 3 mg/kg of opicapone, plasma. As to the method: The pharmacokinetics of solid dispersions of amorphous opicapone were evaluated in male Wistar rats, after oral administration of Sample 1, 4 or 6, or a control sample of micronised crystalline opicapone, at a dose of 3 mg/kg of opicapone. The exposure of these solid dispersions, formulated as a HPMC suspensions (50 mg of opicapone per 100 mL of 0.2% HPMC), were compared with the exposure of micronised crystalline opicapone, at a dose of 3 mg/kg of opicapone.
During the studies, blood was collected at different time points, from tail vein, spun at 1500×g in a refrigerated centrifuge (4° C.) for 15 min, and the plasma obtained was stored at −80° C. until further analysis. The plasma samples collected from twenty animals (140 samples), were analysed for opicapone exposure. The bioanalysis involved the use of LC-MS/MS after plasma precipitation.

Data set [4] in a line: Particle size distribution (circle equivalent diameter) by SEM. The data set is classed as physicochemical. The following applies: particle size distribution (equivalent circular diameter) after micronisation, MC JETMILL 200. How it is done:
A Phenom Pro-X Electron microscope (PhenomWorld, Thermo Fisher Scientific, USA) equipped with a CeB6 electron source and backscatter electron detector was used to determine the morphology and particle size of the samples.
The powder was placed on conductive adhesive tape. The holder for non-conductive samples was used. The excess of sample (loosely bound to the tape) was removed using compressed air.
Particle morphology was assessed by Automated Image Mapping software and particle size determination was made by Particlemetric software.

`Cc1c(Cl)c(C)[n+]([O-])c(Cl)c1-c1noc(-c2cc(O)c(O)c([N+](=O)[O-])c2)n1` [Opicapone Control, opicapone]: the exposure (AUC) in data set [1] (Experiment 1) was 7.625 µg·h/mL; in data set [1] (Experiment 2), 5.75 µg·h/mL; in data set [1] (Experiment 3), 5.86 µg·h/mL; in data set [2] (Experiment 1), 1589 µg·h/mL; in data set [2] (Experiment 2), 1310 µg·h/mL; in data set [2] (Experiment 3), 1400 µg·h/mL. The Cmax in data set [1] (Experiment 1) is 300 ng/mL; in data set [1] (Experiment 2), 300 ng/mL; in data set [1] (Experiment 3), 260 ng/mL; in data set [2] (Experiment 1), 69000 ng/mL; in data set [2] (Experiment 2) it was 86000 ng/mL; in data set [2] (Experiment 3), 89000 ng/mL. This compound also showed a Cmax in data set [3] (rat) of 379 ng/mL. The tmax is 24 h in data set [1] (Experiment 2); 24 h in data set [1] (Experiment 3); 24 h in data set [2] (room temperature, Experiment 1); 2 h in data set [2] (Experiment 2); 2 h in data set [3] (rat). This compound returned a tlast in data set [3] of 8 h. In data set [3] (rat), this compound returned an exposure AUC(0-t) of 1.4 µg·h/mL. The concentration at 8 h in data set [3] (rat, read-out: Clast) came to 78.6 ng/mL. The D10 in data set [4] is at least 4 μm. Further, in data set [4], the D50 is 10-40 μm. Moreover, the D95 in data set [4] is listed as at most 80 μm.
